# Laboratory results: PubChem BioAssay AID328 (DTP/NCI, 2004)
# Inconclusive results and toxic doses are left out.
# Tested on: BDF1 mice, P388 leukemia ip, median survival T/C
# Test: NCI In Vivo Anticancer Drug Screen. Data for tumor model P388 Leukemia (intraperitoneal) in B6D2F1 (BDF1) mice
# Conditions: endpoint: median survival time, higher = longer survival
# In short: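 Survival ratio, drug arm over vehicle arm, in mice with a transplanted tumour.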
# [1] = dose: 100.0 mg/kg/injection, schedule: Q04DX003 (ip), vehicle: saline with Tween-80
# [2] = dose: 200.0 mg/kg/injection, schedule: Q04DX003 (ip), vehicle: saline with Tween-80
# [3] = dose: 25.0 mg/kg/injection, schedule: Q01DX009 (ip), vehicle: saline with Tween-80
# [4] = dose: 50.0 mg/kg/injection, schedule: Q04DX003 (ip), vehicle: saline with Tween-80
# [5] = dose: 50.0 mg/kg/injection, schedule: Q01DX009 (ip), vehicle: saline with Tween-80
smiles,measurement,setting,value
O=S(=O)(F)c1ccc2nc(-c3cccc(Sc4ccccc4)c3)cc(Cl)c2c1,T/C,[1],90 % of control
same,T/C,[2],100 % of control
same,T/C,"dose: 400.0 mg/kg/injection, schedule: Q04DX003 (ip), vehicle: saline with Tween-80",100 % of control
CCCC(=O)Nc1ccc(N)cc1OC,T/C,"dose: 5.0 mg/kg/injection, schedule: Q01DX009 (ip), vehicle: saline",100 % of control
same,T/C,"dose: 5.0 mg/kg/injection, schedule: Q04DX003 (ip), vehicle: saline",91 % of control
same,T/C,"dose: 10.0 mg/kg/injection, schedule: Q01DX009 (ip), vehicle: saline",100 % of control
same,T/C,"dose: 10.0 mg/kg/injection, schedule: Q04DX003 (ip), vehicle: saline",100 % of control
same,T/C,"dose: 20.0 mg/kg/injection, schedule: Q01DX009 (ip), vehicle: saline",100 % of control
same,T/C,"dose: 20.0 mg/kg/injection, schedule: Q04DX003 (ip), vehicle: saline",91 % of control
CSc1ccc(N=C=C(c2ccccc2)c2ccccc2)cc1,T/C,"dose: 6.25 mg/kg/injection, schedule: Q01DX009 (ip), vehicle: saline with Tween-80",95 % of control
same,T/C,"dose: 12.5 mg/kg/injection, schedule: Q01DX009 (ip), vehicle: saline with Tween-80",90 % of control
same,T/C,[3],90 % of control
CC(=O)N1CCc2cc(N)ccc21,T/C,"dose: 50.0 mg/kg/injection, schedule: Q04DX003 (ip), vehicle: saline",95 % of control
same,T/C,"dose: 100.0 mg/kg/injection, schedule: Q04DX003 (ip), vehicle: saline",95 % of control
same,T/C,"dose: 200.0 mg/kg/injection, schedule: Q04DX003 (ip), vehicle: saline",91 % of control
O=C(O)c1cccc(S(=O)(=O)N(CCO)CCO)c1,T/C,[4],100 % of control
same,T/C,[1],90 % of control
same,T/C,[2],95 % of control
CCCCCCCCCCCCCCCC(=O)OCCCCCCCCCCCCC,T/C,"dose: 25.0 mg/kg/injection, schedule: Q04DX003 (ip), vehicle: saline with Tween-80",100 % of control
same,T/C,[4],100 % of control
same,T/C,[1],105 % of control
Cn1c([N+](=O)[O-])cnc1CSC(=S)N1CCN(C(=S)SCc2ncc([N+](=O)[O-])n2C)CC1,T/C,[3],106 % of control
same,T/C,[5],103 % of control
same,T/C,"dose: 100.0 mg/kg/injection, schedule: Q01DX009 (ip), vehicle: saline with Tween-80",103 % of control
CC12NC(=O)NC1(C)NC(=O)N2 (stereo not drawn),T/C,[1],100 % of control
same,T/C,[2],100 % of control
CS(=O)(=O)N(CC(=O)O)Cc1ccccc1,T/C,"dose: 50.0 mg/kg/injection, schedule: Q04DX003 (ip), vehicle: sodium bicarbonate",107 % of control
same,T/C,"dose: 100.0 mg/kg/injection, schedule: Q04DX003 (ip), vehicle: sodium bicarbonate",119 % of control
same,T/C,"dose: 200.0 mg/kg/injection, schedule: Q04DX003 (ip), vehicle: sodium bicarbonate",103 % of control
same,T/C,"dose: 400.0 mg/kg/injection, schedule: Q04DX003 (ip), vehicle: sodium bicarbonate",110 % of control
COc1cccc2c1C(=O)c1c(O)c3c(c(O)c1C2=O)C[C@@](O)(C(=O)COC(=O)c1cccnc1)C[C@@H]3OC1CC(N)C(O)C(C)O1 (stereo partly drawn),T/C,"dose: 1.32 mg/kg/injection, schedule: Q01DX009 (ip), vehicle: saline",195 % of control
same,T/C,"dose: 2.0 mg/kg/injection, schedule: Q01DX009 (ip), vehicle: saline",237 % of control
COc1ccc(C(CC(=O)c2ccc3c(c2)OCO3)c2c(O)c3ccccc3oc2=O)cc1OC (stereo not drawn),T/C,[3],89 % of control
same,T/C,[5],91 % of control
COc1cc2c(cc1OC)-c1cc3cc(OC)c(OC)cc3c(CCC(=O)O)[n+]1CC2 (tested in a mixture with another compound),T/C,"dose: 100.0 mg/kg/injection, schedule: Q01DX009 (ip), vehicle: saline",106 % of control
same,T/C,"dose: 200.0 mg/kg/injection, schedule: Q01DX009 (ip), vehicle: saline",92 % of control
same,T/C,"dose: 400.0 mg/kg/injection, schedule: Q01DX009 (ip), vehicle: saline",90 % of control
O=C(CI)Nc1ccc(O)c2ccccc12,T/C,"dose: 0.78 mg/kg/injection, schedule: Q01DX009 (ip), vehicle: water",97 % of control
same,T/C,"dose: 1.56 mg/kg/injection, schedule: Q01DX009 (ip), vehicle: water",106 % of control
same,T/C,"dose: 3.12 mg/kg/injection, schedule: Q01DX009 (ip), vehicle: water",106 % of control
same,T/C,"dose: 6.25 mg/kg/injection, schedule: Q01DX009 (ip), vehicle: water",108 % of control
same,T/C,"dose: 6.25 mg/kg/injection, schedule: Q04DX003 (ip), vehicle: water",89 % of control
same,T/C,"dose: 12.5 mg/kg/injection, schedule: Q01DX009 (ip), vehicle: water",123 % of control
same,T/C,"dose: 12.5 mg/kg/injection, schedule: Q04DX003 (ip), vehicle: water",99 % of control
same,T/C,"dose: 25.0 mg/kg/injection, schedule: Q04DX003 (ip), vehicle: water",104 % of control
OCCN(CCO)c1cc(/C=C/c2cccc3ccccc23)nc2ccccc12,T/C,"dose: 50.0 mg/kg/injection, schedule: Q01DX009 (ip), vehicle: saline + alcohol",100 % of control
same,T/C,"dose: 100.0 mg/kg/injection, schedule: Q01DX009 (ip), vehicle: saline + alcohol",100 % of control
same,T/C,"dose: 200.0 mg/kg/injection, schedule: Q01DX009 (ip), vehicle: saline + alcohol",103 % of control
